The values that follow come from ChEMBL document CHEMBL5465560, “Selectivity Literature for EUbOPEN Chemogenomic Library” (2024).

Assay [1] has as its target Death-associated protein kinase 1 (Homo sapiens, UniProt P53355). The experiment in a line: Selectivity interaction (Adapta Assay) EUB0001632a DAPK1. The settings on record: at 10 µM.
Assay [2] deals with Cyclin-dependent kinase 13 (Homo sapiens, UniProt Q14004). The experiment in a line: Selectivity interaction (KinomeScan (DiscoverX)) EUB0000595a CDK13. As to conditions: at 10 µM.
The target in assay [3] is T1, Serine/threonine-protein kinase 17A (Homo sapiens) (UniProt Q9UEE5).
T1 sequence (whole entry): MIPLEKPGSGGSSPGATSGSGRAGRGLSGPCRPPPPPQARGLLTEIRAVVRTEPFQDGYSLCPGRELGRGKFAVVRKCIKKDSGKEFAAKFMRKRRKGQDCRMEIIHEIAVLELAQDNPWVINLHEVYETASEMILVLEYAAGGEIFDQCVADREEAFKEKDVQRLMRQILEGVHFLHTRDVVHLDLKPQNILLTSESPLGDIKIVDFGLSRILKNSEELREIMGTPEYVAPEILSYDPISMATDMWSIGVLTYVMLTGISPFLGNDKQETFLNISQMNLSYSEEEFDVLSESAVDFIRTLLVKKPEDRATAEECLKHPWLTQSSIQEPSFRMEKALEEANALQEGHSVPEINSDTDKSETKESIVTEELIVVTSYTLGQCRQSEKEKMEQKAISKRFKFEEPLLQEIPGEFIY
The experiment in a line: Selectivity interaction (KinomeScan (DiscoverX)) EUB0001619a STK17A. The settings on record: at 1 µM.

The target in assay [4] is Casein kinase II subunit alpha (Homo sapiens, UniProt P68400). The experiment in a line: Selectivity interaction (KinomeScan (DiscoverX)) EUB0000666a CSNK2A1. As to conditions: at 10 µM.
The target of assay [5] is Ribosomal protein S6 kinase alpha-2 (Homo sapiens) (UniProt Q15349). The experiment in a line: Selectivity interaction (KinomeScan (DiscoverX)) EUB0000666a RPS6KA2. As to conditions: at 10 µM.
The target in assay [6] is Death-associated protein kinase 3 (Homo sapiens) (UniProt O43293). The experiment in a line: Selectivity interaction (KinomeScan (DiscoverX)) EUB0000666a DAPK3. As to conditions: at 10 µM.
Assay [7] has as its target G protein-coupled receptor kinase 5 (Homo sapiens, UniProt P34947). The experiment in a line: Selectivity interaction (SelectScreen profiling (Invitrogen)) EUB0000607a GRK5. As to conditions: at 2 µM.
For assay [8], the target named is Tyrosine-protein kinase Fes/Fps (Homo sapiens) (UniProt P07332). The experiment in a line: Selectivity interaction (Kinase panel (Invitrogen)) EUB0000639a FES. The settings on record: at 200 nM.
Assay [9] deals with Tyrosine-protein kinase receptor UFO (Homo sapiens) (UniProt P30530). The experiment in a line: Selectivity interaction (ActivX KiNativ screen (kinase selectivity in THP-1 cell lysates)) EUB0000639a AXL. The format is subcellular. The settings on record: lysate.
In assay [10] the target is Serine/threonine-protein kinase 26 (Homo sapiens, UniProt Q9P289). The experiment in a line: Selectivity interaction (ActivX KiNativ screen (kinase selectivity in THP-1 cell lysates)) EUB0000639a STK26. The format is subcellular. As to conditions: lysate.
Assay [11] deals with NT-3 growth factor receptor (Homo sapiens, UniProt Q16288). The experiment in a line: Selectivity interaction (Kinase panel (Invitrogen)) EUB0000639a NTRK3. The settings on record: at 200 nM.
Assay [12] deals with T2, 3-phosphoinositide-dependent protein kinase 1 (Homo sapiens) (UniProt O15530).
T2 sequence (whole entry): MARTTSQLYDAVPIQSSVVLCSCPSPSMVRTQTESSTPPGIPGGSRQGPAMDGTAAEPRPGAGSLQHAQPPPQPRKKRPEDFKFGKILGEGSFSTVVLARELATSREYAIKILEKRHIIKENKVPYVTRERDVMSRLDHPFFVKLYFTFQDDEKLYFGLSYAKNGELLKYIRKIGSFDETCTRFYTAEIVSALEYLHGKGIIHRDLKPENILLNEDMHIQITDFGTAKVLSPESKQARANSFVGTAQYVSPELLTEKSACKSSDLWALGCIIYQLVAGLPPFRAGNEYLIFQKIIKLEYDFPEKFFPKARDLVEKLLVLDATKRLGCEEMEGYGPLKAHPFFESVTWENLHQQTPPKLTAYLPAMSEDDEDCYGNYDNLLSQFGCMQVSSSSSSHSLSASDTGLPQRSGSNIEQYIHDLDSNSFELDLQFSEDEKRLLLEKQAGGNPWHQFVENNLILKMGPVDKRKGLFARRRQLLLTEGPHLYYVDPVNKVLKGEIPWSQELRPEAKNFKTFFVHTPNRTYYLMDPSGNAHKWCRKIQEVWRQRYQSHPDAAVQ
The experiment in a line: Selectivity interaction (KinomeScan (DiscoverX)) EUB0000092b PDPK1. The settings on record: at 10 µM.

In assay [13] the target is 5'-AMP-activated protein kinase catalytic subunit alpha-1 (Homo sapiens, UniProt Q13131). The experiment in a line: Selectivity interaction (KinomeScan (DiscoverX)) EUB0000092b PRKAA1. As to conditions: at 10 µM.
For assay [14], the target named is T3, Gamma-aminobutyric acid receptor subunit alpha-1 (Homo sapiens) (UniProt P14867).
T3 sequence (whole entry): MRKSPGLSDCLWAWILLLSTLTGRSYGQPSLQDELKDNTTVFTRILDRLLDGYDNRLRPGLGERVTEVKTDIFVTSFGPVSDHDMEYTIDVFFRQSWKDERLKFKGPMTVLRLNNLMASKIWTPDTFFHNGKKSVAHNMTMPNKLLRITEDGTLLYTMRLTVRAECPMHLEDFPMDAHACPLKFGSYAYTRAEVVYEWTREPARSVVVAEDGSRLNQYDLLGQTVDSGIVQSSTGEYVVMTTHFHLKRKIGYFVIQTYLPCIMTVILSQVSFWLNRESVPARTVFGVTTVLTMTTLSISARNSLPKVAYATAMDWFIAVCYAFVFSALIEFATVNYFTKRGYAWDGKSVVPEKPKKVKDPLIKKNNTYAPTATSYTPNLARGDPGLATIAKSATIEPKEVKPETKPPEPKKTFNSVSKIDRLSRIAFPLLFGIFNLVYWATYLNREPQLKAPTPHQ
The experiment in a line: Selectivity interaction (GPCR panel (PDSP screen)) EUB0001079a GABRA1. The settings on record: at 10 µM.

Assay [15] deals with Serine/threonine-protein kinase WNK1 (Homo sapiens) (UniProt Q9H4A3). The experiment in a line: Selectivity interaction (KinomeScan (DiscoverX)) EUB0001079a WNK1. As to conditions: at 1 µM.
Assay [16] deals with Myosin light chain kinase 2, skeletal/cardiac muscle (Homo sapiens) (UniProt Q9H1R3). The experiment in a line: Selectivity interaction (KinomeScan (DiscoverX)) EUB0000229b MYLK2. The settings on record: at 10 µM.
Sequence of Myosin light chain kinase 2, skeletal/cardiac muscle (Homo sapiens) (Q9H1R3 whole entry): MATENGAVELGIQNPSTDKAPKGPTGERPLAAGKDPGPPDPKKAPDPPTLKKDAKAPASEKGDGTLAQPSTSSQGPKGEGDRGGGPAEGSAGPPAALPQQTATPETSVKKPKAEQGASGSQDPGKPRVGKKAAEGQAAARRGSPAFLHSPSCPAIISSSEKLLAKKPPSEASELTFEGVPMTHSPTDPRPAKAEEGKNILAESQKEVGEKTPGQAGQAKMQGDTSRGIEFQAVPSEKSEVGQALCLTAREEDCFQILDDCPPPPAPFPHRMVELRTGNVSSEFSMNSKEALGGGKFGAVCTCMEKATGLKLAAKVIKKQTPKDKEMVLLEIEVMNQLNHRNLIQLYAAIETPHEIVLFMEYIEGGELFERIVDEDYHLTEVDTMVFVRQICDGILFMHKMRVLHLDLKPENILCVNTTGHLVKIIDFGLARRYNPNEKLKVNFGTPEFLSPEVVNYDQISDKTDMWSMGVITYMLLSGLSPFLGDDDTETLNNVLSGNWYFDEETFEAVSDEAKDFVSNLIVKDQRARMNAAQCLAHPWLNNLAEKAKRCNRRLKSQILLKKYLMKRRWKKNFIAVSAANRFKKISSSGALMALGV

Sequence of Tyrosine-protein kinase receptor UFO (Homo sapiens) (P30530 whole entry): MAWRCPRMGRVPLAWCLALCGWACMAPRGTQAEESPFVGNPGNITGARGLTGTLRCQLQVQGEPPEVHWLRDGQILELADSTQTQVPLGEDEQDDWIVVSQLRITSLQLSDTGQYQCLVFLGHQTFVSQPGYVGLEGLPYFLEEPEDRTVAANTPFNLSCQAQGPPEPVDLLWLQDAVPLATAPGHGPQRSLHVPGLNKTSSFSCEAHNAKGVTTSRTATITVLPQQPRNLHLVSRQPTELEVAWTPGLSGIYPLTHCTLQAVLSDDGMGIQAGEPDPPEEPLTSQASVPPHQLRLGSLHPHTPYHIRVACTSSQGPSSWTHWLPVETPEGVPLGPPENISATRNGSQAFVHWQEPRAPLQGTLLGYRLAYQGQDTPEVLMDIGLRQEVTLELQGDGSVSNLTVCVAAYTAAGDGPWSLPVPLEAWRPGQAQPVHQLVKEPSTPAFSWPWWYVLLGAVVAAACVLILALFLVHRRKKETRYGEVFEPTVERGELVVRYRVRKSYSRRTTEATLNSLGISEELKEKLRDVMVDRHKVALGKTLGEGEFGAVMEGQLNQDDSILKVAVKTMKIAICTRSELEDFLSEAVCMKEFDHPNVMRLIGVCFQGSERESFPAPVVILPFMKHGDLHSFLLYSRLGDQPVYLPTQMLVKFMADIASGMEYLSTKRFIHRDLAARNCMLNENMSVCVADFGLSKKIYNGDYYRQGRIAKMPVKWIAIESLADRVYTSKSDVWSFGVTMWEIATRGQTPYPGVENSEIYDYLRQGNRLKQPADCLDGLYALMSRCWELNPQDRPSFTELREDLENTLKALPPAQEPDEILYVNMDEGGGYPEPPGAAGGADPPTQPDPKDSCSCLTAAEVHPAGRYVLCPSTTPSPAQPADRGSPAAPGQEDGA
Sequence of Serine/threonine-protein kinase 26 (Q9P289 2-416 limits assumed): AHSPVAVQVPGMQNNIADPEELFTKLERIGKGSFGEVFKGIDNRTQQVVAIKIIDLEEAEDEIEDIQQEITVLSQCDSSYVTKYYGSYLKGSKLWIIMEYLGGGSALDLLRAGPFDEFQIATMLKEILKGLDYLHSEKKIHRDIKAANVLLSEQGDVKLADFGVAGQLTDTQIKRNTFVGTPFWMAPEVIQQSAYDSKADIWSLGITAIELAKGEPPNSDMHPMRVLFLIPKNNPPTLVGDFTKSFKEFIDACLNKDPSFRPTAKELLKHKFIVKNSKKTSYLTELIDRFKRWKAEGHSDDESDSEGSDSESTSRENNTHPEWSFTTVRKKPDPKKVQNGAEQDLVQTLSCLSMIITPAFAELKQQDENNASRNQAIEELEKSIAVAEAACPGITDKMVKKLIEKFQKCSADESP
Sequence of NT-3 growth factor receptor (Q16288 32-839 limits assumed): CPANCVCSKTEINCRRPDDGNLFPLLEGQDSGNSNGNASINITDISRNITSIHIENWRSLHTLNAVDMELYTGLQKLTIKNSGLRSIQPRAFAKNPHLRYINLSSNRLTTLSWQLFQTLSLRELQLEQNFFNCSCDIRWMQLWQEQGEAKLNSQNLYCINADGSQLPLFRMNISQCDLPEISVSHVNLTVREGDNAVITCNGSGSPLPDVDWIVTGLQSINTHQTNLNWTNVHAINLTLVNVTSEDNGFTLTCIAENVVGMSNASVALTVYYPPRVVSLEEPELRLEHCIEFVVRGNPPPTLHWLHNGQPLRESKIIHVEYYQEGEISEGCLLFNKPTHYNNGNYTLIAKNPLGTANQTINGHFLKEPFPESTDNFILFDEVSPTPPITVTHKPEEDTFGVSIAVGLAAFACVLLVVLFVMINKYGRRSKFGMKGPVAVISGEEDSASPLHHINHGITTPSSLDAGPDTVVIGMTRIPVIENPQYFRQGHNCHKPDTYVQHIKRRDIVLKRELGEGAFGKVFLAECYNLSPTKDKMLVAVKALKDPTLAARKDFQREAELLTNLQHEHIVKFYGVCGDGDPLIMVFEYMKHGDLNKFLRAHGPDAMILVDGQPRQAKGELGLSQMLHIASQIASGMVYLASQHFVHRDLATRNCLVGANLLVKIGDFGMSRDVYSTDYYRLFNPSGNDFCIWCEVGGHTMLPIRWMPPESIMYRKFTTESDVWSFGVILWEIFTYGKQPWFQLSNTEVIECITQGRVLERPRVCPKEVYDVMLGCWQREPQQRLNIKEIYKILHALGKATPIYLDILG
Sequence of Casein kinase II subunit alpha (P68400 whole entry, looked up): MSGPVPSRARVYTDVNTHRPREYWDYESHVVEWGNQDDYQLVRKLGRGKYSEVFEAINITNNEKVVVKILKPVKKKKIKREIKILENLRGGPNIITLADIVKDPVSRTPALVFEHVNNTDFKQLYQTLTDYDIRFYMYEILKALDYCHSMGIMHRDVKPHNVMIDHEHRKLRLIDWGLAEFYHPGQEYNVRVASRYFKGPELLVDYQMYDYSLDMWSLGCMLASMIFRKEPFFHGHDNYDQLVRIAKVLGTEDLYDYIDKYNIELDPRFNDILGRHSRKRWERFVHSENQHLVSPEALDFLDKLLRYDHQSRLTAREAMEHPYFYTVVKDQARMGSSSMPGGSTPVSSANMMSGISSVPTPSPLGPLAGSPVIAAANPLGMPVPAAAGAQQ
Sequence of Cyclin-dependent kinase 13 (Q14004 whole entry, looked up): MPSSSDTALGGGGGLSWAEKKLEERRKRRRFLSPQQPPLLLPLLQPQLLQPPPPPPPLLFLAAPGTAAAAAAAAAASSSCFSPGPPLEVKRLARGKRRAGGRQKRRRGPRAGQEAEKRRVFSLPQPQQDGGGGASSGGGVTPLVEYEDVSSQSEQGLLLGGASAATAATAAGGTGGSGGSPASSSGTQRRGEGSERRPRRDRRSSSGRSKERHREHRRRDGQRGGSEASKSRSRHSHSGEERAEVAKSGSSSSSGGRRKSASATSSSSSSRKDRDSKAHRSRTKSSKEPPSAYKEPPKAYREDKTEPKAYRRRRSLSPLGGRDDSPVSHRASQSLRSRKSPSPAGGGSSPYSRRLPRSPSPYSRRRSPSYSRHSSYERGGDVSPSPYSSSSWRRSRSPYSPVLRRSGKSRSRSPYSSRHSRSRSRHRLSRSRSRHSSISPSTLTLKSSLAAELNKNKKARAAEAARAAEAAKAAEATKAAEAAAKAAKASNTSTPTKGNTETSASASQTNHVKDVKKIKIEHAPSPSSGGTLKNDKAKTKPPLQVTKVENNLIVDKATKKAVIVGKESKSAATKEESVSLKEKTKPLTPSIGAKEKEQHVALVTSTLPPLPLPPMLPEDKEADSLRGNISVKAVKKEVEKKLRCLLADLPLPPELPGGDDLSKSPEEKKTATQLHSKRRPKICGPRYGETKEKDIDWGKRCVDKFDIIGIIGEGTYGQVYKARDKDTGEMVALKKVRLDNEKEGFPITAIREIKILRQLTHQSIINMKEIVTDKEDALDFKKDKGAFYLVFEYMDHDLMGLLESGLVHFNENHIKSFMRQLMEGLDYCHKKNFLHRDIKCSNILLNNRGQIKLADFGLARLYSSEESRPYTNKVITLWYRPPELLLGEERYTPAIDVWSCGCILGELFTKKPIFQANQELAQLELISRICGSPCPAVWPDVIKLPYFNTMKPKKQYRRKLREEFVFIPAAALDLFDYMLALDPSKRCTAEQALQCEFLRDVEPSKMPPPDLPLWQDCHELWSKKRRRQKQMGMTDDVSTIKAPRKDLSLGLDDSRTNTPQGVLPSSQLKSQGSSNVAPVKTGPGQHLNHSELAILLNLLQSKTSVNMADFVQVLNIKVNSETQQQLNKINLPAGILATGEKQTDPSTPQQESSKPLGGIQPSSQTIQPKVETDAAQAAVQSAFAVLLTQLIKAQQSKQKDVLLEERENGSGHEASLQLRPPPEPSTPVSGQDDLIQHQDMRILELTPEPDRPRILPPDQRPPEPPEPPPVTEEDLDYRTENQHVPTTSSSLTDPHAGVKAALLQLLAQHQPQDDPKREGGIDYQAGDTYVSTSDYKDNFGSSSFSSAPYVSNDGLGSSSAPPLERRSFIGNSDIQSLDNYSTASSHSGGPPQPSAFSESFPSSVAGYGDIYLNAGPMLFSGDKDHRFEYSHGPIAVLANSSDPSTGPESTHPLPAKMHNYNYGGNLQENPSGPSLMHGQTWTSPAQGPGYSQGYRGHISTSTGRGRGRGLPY
Sequence of Death-associated protein kinase 3 (Homo sapiens) (O43293 whole entry, looked up): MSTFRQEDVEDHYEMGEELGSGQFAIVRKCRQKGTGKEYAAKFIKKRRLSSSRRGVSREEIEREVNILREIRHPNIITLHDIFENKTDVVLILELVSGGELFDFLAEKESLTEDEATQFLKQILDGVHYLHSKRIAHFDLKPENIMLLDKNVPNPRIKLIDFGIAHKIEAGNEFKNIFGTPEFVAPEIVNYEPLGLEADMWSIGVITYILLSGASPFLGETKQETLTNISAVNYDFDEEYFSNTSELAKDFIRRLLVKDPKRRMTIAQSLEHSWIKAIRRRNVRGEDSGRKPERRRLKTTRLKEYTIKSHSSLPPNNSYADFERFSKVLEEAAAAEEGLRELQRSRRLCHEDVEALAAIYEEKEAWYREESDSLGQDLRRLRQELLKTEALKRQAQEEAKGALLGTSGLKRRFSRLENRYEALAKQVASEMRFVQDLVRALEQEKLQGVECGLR

For the compound `Cn1cc(-n2cnc3c(NCc4nc5cc(Cl)c(Cl)cc5[nH]4)nc(N4CCOCC4)nc32)cn1`, the % of inhibition in assay [1] was found to be 34%.
Consider `COCC(=O)NC/C=C/c1ccc2ncnc(Nc3ccc(Oc4ccc(C)nc4)c(C)c3)c2c1` [CP-724714], for which the % of control in assay [2] amounted to 100%.
In turn, `N#Cc1cccc(-c2c[nH]c3ncnc(N4CCOCC4)c23)c1` showed a % of control in assay [3] of 88%.
Turning to `O=C(NOC[C@H](O)CO)c1ccc(F)c(F)c1Nc1ccc(I)cc1F`, the % of control in assay [4] amounted to 77%; in assay [5] it was 100%; in [6], 100%.
With `CNC(=O)Nc1ccc(-c2nc(N3CC4CCC(C3)O4)c3cnn(C4CCC5(CC4)OCCO5)c3n2)cc1`, the % of inhibition in assay [7] was -4%.
Consider `CC[C@@H]1[C@H](F)C(=O)N[C@@H]1COc1nccc2cc(C(N)=O)c(OC)cc12` [ZIMLOVISERTIB], for which the % of inhibition is 1.51% in [8]; 0.7% in assay [9] (at 0.01 µM); -4.1% in [9] (at 0.04 µM); 7.8% in [9] (at 0.2 µM); 27.6% in [9] (at 1 µM); 63.2% in [9] (at 5 µM). Moreover, the % of inhibition was -5.3% in assay [10] (at 0.01 µM); 19.1% in assay [10] (at 0.04 µM); -26.4% in [10] (at 0.2 µM); 10.2% in assay [10] (at 1 µM); 0.7% in assay [10] (at 5 µM); 21.9% in assay [11].
Regarding `CCC(=O)N1CCN(c2ccc(-n3c(=O)ccc4cnc5ccc(-c6cnc7ccccc7c6)cc5c43)cc2C(F)(F)F)CC1`, the % of control is 100% in [12] and 91% in [13].
`Nc1cnc(N2CCc3cc(S(=O)(=O)Nc4c(F)cc(Cl)cc4F)cc(N4CCCC4=O)c32)nc1` [TP-020n]: in assay [14], the % of inhibition worked out at 20.5%. For the same compound, the % of control in [15] was found to be 100%.
Turning to `COc1cc(N(C)c2ccnc3ccc(C(F)(F)F)cc23)cc(OC)c1OC`, the % binding in assay [16] worked out at 75%.
